Results published in US11919895B2, “GPR183 antagonists for the treatment of pain” (Saint Louis University, priority 2019, dated 2024).
Entries after “also recorded” stand apart in the source; their conditions may differ. Read-outs that look alike come from different tables or passages of the source. Each block holds one compound with its values, some of them ahead of it.

How the values were obtained:
GPR183 [1] = molecular target: T1, GPR183 (Homo sapiens, UniProt P32249); conditions: Benned-Jensen et al., 2013; read-out: IC50, GPR183 antagonist; cited from earlier work
Target sequence in this assay (P32249 whole entry, species assumed): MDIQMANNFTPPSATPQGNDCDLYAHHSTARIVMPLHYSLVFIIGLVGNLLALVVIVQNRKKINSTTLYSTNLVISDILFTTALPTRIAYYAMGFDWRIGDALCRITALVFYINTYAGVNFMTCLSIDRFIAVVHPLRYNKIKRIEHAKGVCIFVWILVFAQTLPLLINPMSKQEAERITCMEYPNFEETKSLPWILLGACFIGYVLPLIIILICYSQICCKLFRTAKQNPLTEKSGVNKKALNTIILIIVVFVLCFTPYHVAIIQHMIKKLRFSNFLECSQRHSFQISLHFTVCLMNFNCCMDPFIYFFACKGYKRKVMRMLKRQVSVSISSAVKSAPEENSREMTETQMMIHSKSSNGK

[2] = Ardecky et al., 2010; cited from earlier work
[3] = Ardecky et al., 2010; cited from earlier work; remark: listed apart in the source
[4] = system: CCI-induced mechano-allodynia; assay: Example 2: CCI-induced mechano-allodynia, intrathecal injection (von Frey); type: in vivo, mice
Procedure: (§1) α,25-dihydroxycholesterol (7α,25-OHC) was purchased from Avanti Polar Lipids (Alabaster, AL) and dissolved in DMSO as a 2 mM stock. For injections 7α,25-OHC was diluted in saline. […] For intrathecal injections, NIBR189 was diluted in saline. Fluoronated 7α,25-OHC analog (SLUPP-1492) was synthesized as described previously (Deng et al., 2016) (detailed methods below and continued in Supplemental methods) and prepared as a 10 mM stock in DMSO. For injections SLUPP-1492 was diluted in saline. SAE compounds were purchased from Enamine (Monmouth Jet., NJ), all compounds were purified via normal phase chromatography and had purities of ≥95%. 100 mM Stock solutions of the SAE compounds were prepared in DMSO. For intrathecal injections, SAE compounds were diluted in saline. Acute intrathecal (i.th.) injections of compounds were performed as described previously (Lu and Schmidtko, 2013), all compounds were administered intrathecally in a total volume of 5-10 μL.
CCI of the left sciatic nerve of mice and rats was performed under general anesthesia as previously described (Yosten et al., 2020). Briefly, animals were anesthetized with 2% isoflurane/O2, the left thigh was shaved and disinfected with Dermachlor solution. A small incision (1-1.5 cm) was made in the middle of the lateral aspect of the left thigh to expose the sciatic nerve. The nerve was loosely ligated around the diameter at 3 distinct sites (1 mm apart) using silk sutures (6.0, mice; 4.0, rats). The surgical site was closed with a skin clip and disinfected and treated with topical lidocaine (2%). Sham animals underwent the same procedure without nerve ligation. Peak allodynia developed by D7-D10 following CCI surgery.
(§2) Mechano-allodynia was measured as previously described (Yosten et al., 2020) using calibrated von Frey filaments (Stoelting; range in mice: 0.07-2.00 g; in rats: 2-26 g) using the Dixon up-and-down method (Dixon, 1991). Mechano-allodynia was defined as a significant (p<0.05) reduction in mechanical paw withdrawal threshold [PWT (g)] compared to baseline forces (before treatment).

[5] = system: CCI-induced neuropathic pain; assay: Example 1: intrathecal injection in CCI-induced neuropathic pain; type: in vivo, rodents; conditions: for reversal of CCI-induced neuropathic pain behaviors (allodynia) ipsilateral to injury: intrathecal injection at time of peak neuropathic pain (day 7); for effect on behaviors on the contralateral side: intrathecal injection (5 μl), CCI
[6] = system: GPR183 signaling in the spinal cord; assay: Example 2: mechano-allodynia induced by intrathecal GPR183 agonist; type: in vivo, mice
Procedure: as §1, §2

[7] = system: GPR183 signaling in the spinal cord; assay: Example 2: cold allodynia induced by intrathecal GPR183 agonist (acetone test); type: in vivo, mice
Procedure: as §1, with “Acute intrathecal (i.th.) injections of compounds were performed as described previously (Lu and Schmidtko, 2013), all compounds were administered intrathecally in a total volume of 5-10 μL.” left out
Cold allodynia was measured as previously described using the acetone test (Xing et al., 2007; Yosten et al., 2020). Briefly, a small drop of acetone was applied to the hind paw of the animal using a flattened polyethylene tube and a syringe and the response to the cold stimulus was scored (0, no response; 1, brisk withdrawal or flick of the paw; 2. repeated flicking of the paw; 3. repeated flicking and licking of the paw). […] When mechanical and cold allodynia were measured on the same animal, mechano-allodynia was measured first with at least 15 minutes before testing cold allodynia.

GPR183 [8] = assay: Example 1: mechano-allodynia induced by i.th. GPR183 agonist; type: in vivo, rodents
GPR183 [9] = molecular target: T1, GPR183; assay: Calcium mobilization antagonism assay (7α,25-OHC-induced) in HL-60 cells; type: cell-based; parameters: host or cells: HL-60 (human leukemia) cells; conditions: 7α,25-OHC at EC80
Target sequence in this assay (P32249 whole entry): as the sequence (P32249 whole entry, species assumed) above
Procedure: Serial dilutions (5×) of compounds were prepared in 50:1 HBSS/HEPES.HL-60 cells (1×10^7) were incubated in 50:1 HBSS/HEPES containing 5 μM indo-1-AM (Thermo Fischer Scientific; Waltham. MA) and 0.05% pluronic acid for 0.5 hours at room temperature. Cells were centrifuged and washed with 50:1 HBSS/HEPES and resuspended in buffer. Cells were loaded onto a black 96-well Greiner Bio-One (Thermo Fischer Scientific; Waltham, MA) clear-bottom plate at 100,000 cells/well for a 5× dilution. […] For antagonism assays, before the addition of agonist, 5× of the antagonist was added and incubated for 15 minutes at 37° C. inside a FlexStation3. After allowing 15 minutes of equilibration, the determined EC80 of 7α,25-OHC (200 nM) was added, and fluorescence was read for 150 secs at 37° C. Calcium mobilization was determined ratiometrically using λex 350 nm and λem 405/490 nm. Dose-response data were normalized to a 0.5% DMSO vehicle control and the maximum response. […]

GPR183 [10] = molecular target: T1, GPR183; assay: Calcium mobilization agonism assay in HL-60 cells; type: cell-based; parameters: host or cells: HL-60 (human leukemia) cells; conditions: for EC80: calcium mobilization
Procedure: The Human leukemia (HL)-60 cells (American Type Culture Collection; Manassas, VA) were cultivated in RPMI 1640 media containing 10% heat-inactivated fetal bovine serum (FBS), 1% penicillin, and 1% GlutaMax. Cells were passaged every 3 days and maintained at a cell concentration below 1×10^6 to prevent differentiation.
(§3) Serial dilutions (5×) of compounds were prepared in 50:1 HBSS/HEPES.HL-60 cells (1×10^7) were incubated in 50:1 HBSS/HEPES containing 5 μM indo-1-AM (Thermo Fischer Scientific; Waltham. MA) and 0.05% pluronic acid for 0.5 hours at room temperature. Cells were centrifuged and washed with 50:1 HBSS/HEPES and resuspended in buffer. Cells were loaded onto a black 96-well Greiner Bio-One (Thermo Fischer Scientific; Waltham, MA) clear-bottom plate at 100,000 cells/well for a 5× dilution. For agonism assays, cells were immediately incubated for 15 minutes at 37° C. inside a FlexStation 3 Multimode Plate Reader (Molecular Devices; Sunnyvale, CA). Following the 15 minute incubation period, 5× of the compound was added and fluorescence was read for 150 seconds at 37° C. This method was utilized to determine the EC80 value of 7α,25·OHC (EC80=200 nM). For antagonism assays, before the addition of agonist, 5× of the antagonist was added and incubated for 15 minutes at 37° C. inside a FlexStation3. After allowing 15 minutes of equilibration, the determined EC80 of 7α,25-OHC (200 nM) was added, and fluorescence was read for 150 secs at 37° C. Calcium mobilization was determined ratiometrically using λex 350 nm and λem 405/490 nm. Dose-response data were normalized to a 0.5% DMSO vehicle control and the maximum response. From the normalized data, non-linear regression curves were then generated to calculate the appropriate EC50 and IC50 values. Each compound was run in triplicate (n=3).
Target sequence in this assay (P32249 whole entry): as the sequence (P32249 whole entry, species assumed) above

GPR183 [11] = molecular target: T1, GPR183; assay: Calcium mobilization in HL-60 cells after siRNA knock-down of GPR183; type: cell-based; parameters: host or cells: HL-60 (human leukemia) cells; conditions: HL-60 cells treated with siRNA, FIG. 12E
Procedure: as §3, with “Dose-response data were normalized to a 0.5% DMSO vehicle control and the maximum response. From the normalized data, non-linear regression curves were then generated to calculate the appropriate EC50 and IC50 values. Each compound was run in triplicate (n=3).” left out
Target sequence in this assay (P32249 whole entry): as the sequence (P32249 whole entry, species assumed) above
siRNA was purchased from Santa Cruz Biotechnology (Dallas, TX). HL-60 cells were centrifuged and counted with a hemocytometer to obtain 2.5×10^6 cells. […]

[12] = acute i.th. on D7 post-surgery, male and female mice, SAE-1 800 nM, SAE-10 1.4 μM, SAE-14 2.9 μM

Compound: O=C(/C=C/c1ccc(Cl)cc1)N1CCC2(CC1)CN(Cc1ccc(Cl)c(Cl)c1)C(=O)O2 [GSK682753A]
IC50 (GPR183 [1]): 200 nM
microsomal stability [2]: poor
plasma stability [3]: poor

Compound: COc1cc2c(cc1OC)CN(C(=O)NOCc1ccccc1)CC2 [SAE-10]
reversal of CCI-induced mechano-allodynia [4, 12]: reversed CCI-induced mechanical allodynia in a time-dependent manner

IC50 (GPR183 [9]): 28.5 nM
Compound: O=C(CCc1ccc(F)c(F)c1)Nc1cc(F)cc(N2CCOCC2)c1 [SAE-14]
reversal of CCI-induced neuropathic pain behaviors (allodynia) ipsilateral to injury [5]: reversed allodynia in a time-dependent manner
observable adverse side effects ([5]; intrathecal injection, rodents): no observable adverse side effects
reversal of CCI-induced mechano-allodynia [4, 12]: reversed CCI-induced mechanical allodynia in a time-dependent manner
prevention of mechano-allodynia induced by 7α,25-OHC ([6]; i.th. pre-treatment 0.3, 1, 3 μM, 7α,25-OHC 480 nM, male and female mice): blocked these effects of 7α,25-OHC in a dose-dependent manner; also recorded: dose-dependently prevented
prevention of cold-allodynia induced by 7α,25-OHC ([7]; i.th. pre-treatment 3 μM, 7α,25-OHC 480 nM, male and female mice): blocked these effects of 7α,25-OHC in a dose-dependent manner; also recorded: dose-dependently prevented
blockade of agonist-induced allodynia (GPR183 [8]; i.th. delivery, rodents): blocked

Compound: COc1cc(C(C)NC(=O)Cc2c(C)nc(C)[nH]c2=O)cc(OC)c1OC (stereo not drawn) [SAE-1]
effect on behaviors on the contralateral side [5]: No effects on behaviors on the contralateral side
reversal of CCI-induced neuropathic pain behaviors (allodynia) ipsilateral to injury [5]: reversal of CCI-induced neuropathic pain behaviors ipsilateral to injury in a time- and dose-dependent manner
reversal of CCI-induced mechano-allodynia [4, 12]: reversed CCI-induced mechanical allodynia in a time-dependent manner

Compound: C[C@H](CCCC(C)(C)O)[C@H]1CC[C@H]2[C@@H]3[C@H](O)C=C4C[C@@H](O)CC[C@]4(C)[C@H]3CC[C@]12C [7α,25-OHC, 7α,25-dihydroxycholesterol]
induction of mechano-allodynia ([6]; acute i.th., 7α,25-OHC 24, 72, 240 nM, SLUPP-1492 615 nM, male and female mice): induced a dose and time-dependent mechano-allodynia
ED50, induction of mechano-allodynia ([6]; i.th. injection, mice, FIG. 14A): 74 nM
induction of cold-allodynia ([7]; i.th., 7α,25-OHC 240 nM, SLUPP-1492 615 nM, mice): induced time-dependent development of cold-allodynia
ED50, induction of mechano-allodynia (GPR183 [8]; i.th. injection, n=6/dose, 3 doses): 0.031 ng
EC50 (GPR183 [10]): 42.4 nM
calcium response in HL-60 cells that express GPR183 (GPR183 [10]; FIG. 1): very prominent calcium response
EC80 (GPR183 [10]; HL-60 cells): 209 nM
EC80 (GPR183 [10]; HL-60 cells, listed as 7α,25·OHC): 200 nM
HillSlope (best-fit value) (GPR183 [10]; log(agonist) vs. normalized response, variable slope, HL-60 cells): 0.8624
7α,25-OHC-induced calcium mobilization with GPR183-specific siRNA (GPR183 [11]): abolished

Compound: COc1ccc(C(=O)N2CCN(C(=O)/C=C/c3ccc(Br)cc3)CC2)cc1 [NIBR189]
effect on behaviors on the contralateral side [5]: No effects on behaviors on the contralateral side
reversal of CCI-induced neuropathic pain behaviors (allodynia) ipsilateral to injury [5]: reversal of CCI-induced neuropathic pain behaviors ipsilateral to injury in a time- and dose-dependent manner
reversal of CCI-induced mechano-allodynia ([4]; acute i.th. 0.7, 2.3, 23 μM on D7 post CCI, male mice): failed to reverse mechano-allodynia; also recorded: did not reverse
